Measurements as given in US12630548B2, “Azetidine derivatives for the treatment of integrin associated diseases” (The University of Nottingham, priority 2020, dated 2026).
Read-outs that look alike come from different tables or passages of the source.

Legend:
ανβ6 = ανβ6 (Homo sapiens, UniProt P06756+P18564); test: Cell adhesion assay, αvβ6 integrin; type: cell-based
Method: The assays were performed as described in the literature (P. A. Procopiou, N. A. Anderson, J. Barrett, T. N. Barrett, M. H. J. Crawford, B. J. Fallon, A. P. Hancock, J. Le, S. Lemma, R. P. Marshall, J. Morrell, J. M. Pritchard, J. E. Rowedder, P. Saklatvala, R. J. Slack, S. L. Sollis, C. J. Suckling, L. R. Thorp, G. Vitulli, et al., J. Med. Chem. 2018, 61, 8417-8443; S. B. Ludbrook, S. T. Barry, C. J. Delves, C. M. T. Horgan, Biochem. J. 2003, 369, 311-318).

hERG = hERG (Homo sapiens, UniProt Q12809); test: hERG Q-patch; type: cell-based; conditions: read-out: hERG Q-patch (pIC50) (converted)
Source text: The human ether-a-go-go related gene (hERG) encodes the inward rectifying voltage gated potassium channel in the heart (IKr) that is involved in cardiac repolarisation. Inhibition of the hERG current causes QT interval prolongation resulting in potentially fatal ventricular tachyarrhythmia called Torsade de Pointes. A number of drugs have been withdrawn from late stage clinical trials due to these cardiotoxic effects, therefore it is important to identify inhibitors early in drug discovery (W. Haverkamp et al. Eur Heart J., 2000, 21(15), 1216). A low potency in this screen is advantageous for compound development.

[1] = ChromlogD (lipophilicity); type: physicochemical; conditions: pH 7.4
Source text: ChromlogD is a measure of lipophilicity of a compound (R. J. Young et al. Drug Discovery Today 2011, […]). Lipophilicity is a key physicochemical property that plays a crucial role in determining ADMET (absorption, distribution, metabolism, excretion, and toxicity) properties and the overall suitability of drug candidates.

[2] = cell adhesion data, read-out: ανβ6 IC50

Sequence of ανβ6 (P06756 31-889 limits assumed): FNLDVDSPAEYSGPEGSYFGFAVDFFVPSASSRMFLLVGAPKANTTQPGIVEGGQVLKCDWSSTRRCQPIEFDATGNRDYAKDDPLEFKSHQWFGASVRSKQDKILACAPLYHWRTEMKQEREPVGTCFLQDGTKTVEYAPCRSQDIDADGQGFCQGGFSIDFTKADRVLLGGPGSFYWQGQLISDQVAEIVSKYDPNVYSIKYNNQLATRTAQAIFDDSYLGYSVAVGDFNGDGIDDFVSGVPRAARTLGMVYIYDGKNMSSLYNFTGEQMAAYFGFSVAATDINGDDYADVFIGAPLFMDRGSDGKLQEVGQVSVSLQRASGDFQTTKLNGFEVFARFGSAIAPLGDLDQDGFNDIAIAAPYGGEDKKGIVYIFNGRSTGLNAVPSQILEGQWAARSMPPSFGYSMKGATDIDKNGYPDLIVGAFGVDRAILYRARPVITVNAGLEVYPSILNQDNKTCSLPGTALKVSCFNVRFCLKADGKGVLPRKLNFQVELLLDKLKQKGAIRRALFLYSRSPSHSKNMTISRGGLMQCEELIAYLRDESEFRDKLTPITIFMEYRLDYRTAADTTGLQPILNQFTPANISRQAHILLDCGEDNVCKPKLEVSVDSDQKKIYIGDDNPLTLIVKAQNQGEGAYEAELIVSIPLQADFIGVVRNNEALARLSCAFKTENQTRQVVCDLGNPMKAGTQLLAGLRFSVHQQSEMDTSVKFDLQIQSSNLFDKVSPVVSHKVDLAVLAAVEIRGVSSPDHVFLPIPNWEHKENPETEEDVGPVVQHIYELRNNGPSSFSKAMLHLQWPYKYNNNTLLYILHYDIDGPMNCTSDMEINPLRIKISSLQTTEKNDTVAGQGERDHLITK
Sequence of ανβ6 (P06756 891-1048 limits assumed): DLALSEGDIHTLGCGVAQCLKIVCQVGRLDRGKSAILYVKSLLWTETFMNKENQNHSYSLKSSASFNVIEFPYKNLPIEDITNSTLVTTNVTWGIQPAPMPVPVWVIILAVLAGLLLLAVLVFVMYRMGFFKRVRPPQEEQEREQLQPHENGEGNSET
Sequence of ανβ6 (P18564 22-788): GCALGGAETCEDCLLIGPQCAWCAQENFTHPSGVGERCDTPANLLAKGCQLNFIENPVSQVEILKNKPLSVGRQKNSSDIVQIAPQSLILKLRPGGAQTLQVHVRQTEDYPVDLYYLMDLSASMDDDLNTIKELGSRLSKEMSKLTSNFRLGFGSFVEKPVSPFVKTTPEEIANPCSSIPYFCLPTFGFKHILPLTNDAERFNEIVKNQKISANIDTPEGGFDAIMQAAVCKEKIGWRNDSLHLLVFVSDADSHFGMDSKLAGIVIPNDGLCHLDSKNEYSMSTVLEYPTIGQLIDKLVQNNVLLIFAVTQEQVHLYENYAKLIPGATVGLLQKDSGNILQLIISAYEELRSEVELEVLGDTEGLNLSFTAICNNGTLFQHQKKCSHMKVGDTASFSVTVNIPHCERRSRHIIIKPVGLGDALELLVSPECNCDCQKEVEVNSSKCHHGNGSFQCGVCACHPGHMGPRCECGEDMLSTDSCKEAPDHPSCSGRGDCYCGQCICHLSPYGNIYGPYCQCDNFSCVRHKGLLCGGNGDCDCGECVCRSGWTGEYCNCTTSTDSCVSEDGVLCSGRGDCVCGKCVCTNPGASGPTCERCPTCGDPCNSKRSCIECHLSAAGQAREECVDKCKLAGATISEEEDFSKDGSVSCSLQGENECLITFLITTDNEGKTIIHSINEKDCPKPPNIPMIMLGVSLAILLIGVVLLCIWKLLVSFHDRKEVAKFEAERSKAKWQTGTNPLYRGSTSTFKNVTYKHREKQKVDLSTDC
Sequence of hERG (Q12809 whole entry): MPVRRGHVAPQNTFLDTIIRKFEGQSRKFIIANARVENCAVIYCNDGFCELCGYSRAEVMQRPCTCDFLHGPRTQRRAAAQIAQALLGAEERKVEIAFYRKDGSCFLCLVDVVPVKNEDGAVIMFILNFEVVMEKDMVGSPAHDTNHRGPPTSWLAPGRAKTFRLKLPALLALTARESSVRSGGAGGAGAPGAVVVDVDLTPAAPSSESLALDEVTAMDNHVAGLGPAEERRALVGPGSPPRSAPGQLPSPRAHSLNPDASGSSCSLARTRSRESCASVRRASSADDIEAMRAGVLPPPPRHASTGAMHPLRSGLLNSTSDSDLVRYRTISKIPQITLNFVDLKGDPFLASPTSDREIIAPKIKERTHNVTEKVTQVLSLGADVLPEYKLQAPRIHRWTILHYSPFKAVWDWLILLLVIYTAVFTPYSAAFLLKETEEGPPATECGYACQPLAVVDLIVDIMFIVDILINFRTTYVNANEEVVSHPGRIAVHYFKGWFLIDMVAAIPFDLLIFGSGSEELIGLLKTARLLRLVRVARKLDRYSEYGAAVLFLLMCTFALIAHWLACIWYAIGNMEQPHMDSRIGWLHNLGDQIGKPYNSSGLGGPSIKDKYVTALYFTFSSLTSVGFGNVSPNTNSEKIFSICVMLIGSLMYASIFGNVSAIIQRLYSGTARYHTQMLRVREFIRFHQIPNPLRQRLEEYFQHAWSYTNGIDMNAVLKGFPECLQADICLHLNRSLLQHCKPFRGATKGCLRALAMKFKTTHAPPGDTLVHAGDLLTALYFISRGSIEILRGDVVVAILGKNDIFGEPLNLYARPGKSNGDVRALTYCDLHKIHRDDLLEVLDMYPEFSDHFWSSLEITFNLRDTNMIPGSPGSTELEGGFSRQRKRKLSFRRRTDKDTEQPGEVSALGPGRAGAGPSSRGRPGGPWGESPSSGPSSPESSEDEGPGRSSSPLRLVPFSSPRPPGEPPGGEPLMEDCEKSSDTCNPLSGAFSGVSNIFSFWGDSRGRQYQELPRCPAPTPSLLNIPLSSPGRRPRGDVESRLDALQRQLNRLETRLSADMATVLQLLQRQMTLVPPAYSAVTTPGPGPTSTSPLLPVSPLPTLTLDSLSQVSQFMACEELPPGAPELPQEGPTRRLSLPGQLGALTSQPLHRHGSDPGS

Structure (SMILES)	IC50 (ανβ6; [2]) [nM]	further results
CCc1cccc(S(=O)(=O)N2CC(C(=O)N[C@@H](CNC(=O)CCCCc3ccc4c(n3)NCCC4)C(=O)O)C2)c1 [Example 26, (S)-2-(1-(3-Ethylbenzenesulfonyl)azetidine-3-carboxamido)-3-(5-(5,6,7,8-tetrahydro-1,8-naphthyridin-2-yl)pentanamido)propanoic acid]	< 250	–
O=C(CCCCc1ccc2c(n1)NCCC2)NCC(NC(=O)C1CN(S(=O)(=O)c2cc(Cl)cc(Cl)c2)C1)C(=O)O (racemic) [Example 10, 2-(1-(3,5-dichlorobenzenesulfonyl)azetidine-3-carboxamido)-3-(5-(5,6,7,8-tetrahydro-1,8-naphthyridin-2-yl)pentanamido)propanoic acid]	< 250	–
Cn1cnc(S(=O)(=O)N2CC(C(=O)NC(CNC(=O)CCCCc3ccc4c(n3)NCCC4)C(=O)O)C2)c1 (racemic) [Example 18, 2-(1-((1-methyl-1H-imidazol-4-yl)sulfonyl)azetidine-3-carboxamido)-3-(5-(5,6,7,8-tetrahydro-1,8-naphthyridin-2-yl)pentanamido) propanoic acid]	< 250	–
O=C(CCCCc1ccc2c(n1)NCCC2)NC[C@H](NC(=O)C1CN(S(=O)(=O)c2cccc(Cl)c2)C1)C(=O)O [Example 27, (S)-2-(1-(3-Chlorobenzenesulfonyl)azetidine-3-carboxamido)-3-(5-(5,6,7,8-tetrahydro-1,8-naphthyridin-2-yl)pentanamido)propanoic acid]	< 250	–
CN(C)CCOc1cccc(S(=O)(=O)N2CC(C(=O)N[C@@H](CNC(=O)CCCCc3ccc4c(n3)NCCC4)C(=O)O)C2)c1 [Example 35]	< 250	–
CCc1cccc(S(=O)(=O)N2CC(C(=O)NC(CNC(=O)CCCCc3ccc4c(n3)NCCC4)C(=O)O)C2)c1 (racemic) [Example 14, 2-(1-(3-ethylbenzenesulfonyl)azetidine-3-carboxamido)-3-(5-(5,6,7,8-tetrahydro-1,8-naphthyridin-2-yl)pentanamido)propanoic acid]	< 250	–
O=C(CCCCc1ccc2c(n1)NCCC2)NC[C@H](NC(=O)C1CN(S(=O)(=O)c2ccc3c(c2)CCC3)C1)C(=O)O [Example 31, (S)-2-(1-((2,3-Dihydro-1H-inden-5-yl)sulfonyl)azetidine-3-carboxamido)-3-(5-(5,6,7,8-tetrahydro-1,8-naphthyridin-2-yl)pentanamido)propanoic acid]	< 250	–
COc1cccc(S(=O)(=O)N2CC(C(=O)N[C@@H](CNC(=O)CCCCc3ccc4c(n3)NCCC4)C(=O)O)C2)c1 [Example 28, (S)-2-(1-(3-Methoxybenzenesulfonyl)azetidine-3-carboxamido)-3-(5-(5,6,7,8-tetrahydro-1,8-naphthyridin-2-yl)pentanamido)propanoic acid]	< 250	–
Cc1cc(Cl)cc(S(=O)(=O)N2CC(C(=O)NC(CNC(=O)CCCCc3ccc4c(n3)NCCC4)C(=O)O)C2)c1 (racemic) [Example 13, 2-(1-(3-chloro-5-methylbenzenesulfonyl)azetidine-3-carboxamido)-3-(5-(5,6,7,8-tetrahydro-1,8-naphthyridin-2-yl)pentanamido)propanoic acid]	< 250	–
Cc1cccc(S(=O)(=O)N2CC(C(=O)N[C@@H](CNC(=O)CCCCc3ccc4c(n3)NCCC4)C(=O)O)C2)c1 [Example 6A]	< 250	IC50 (hERG): > 31600 nM; IC50 (ανβ6; comparison table, Example 6A, read-out: αvβ6 (pIC50) (converted)): 5.01 nM; chromatographic logD [1]: 2.27
O=C(CCCCc1ccc2c(n1)NCCC2)NC[C@H](NC(=O)C1CN(S(=O)(=O)c2cccc(C(F)F)c2)C1)C(=O)O [Example 29, (S)-2-(1-(3-(Difluoromethyl)benzenesulfonyl)azetidine-3-carboxamido)-3-(5-(5,6,7,8-tetrahydro-1,8-naphthyridin-2-yl)pentanamido)propanoic acid]	< 250	–
Cc1nc(S(=O)(=O)N2CC(C(=O)NC(CNC(=O)CCCCc3ccc4c(n3)NCCC4)C(=O)O)C2)cn1C (racemic) [Example 22, 2-(1-((1,2-dimethyl-1H-imidazol-4-yl)sulfonyl)azetidine-3-carboxamido)-3-(5-(5,6,7,8-tetrahydro-1,8-naphthyridin-2-yl)pentanamido)propanoic acid]	< 250	–
Cc1ccccc1S(=O)(=O)N1CC(C(=O)NC(CNC(=O)CCCCc2ccc3c(n2)NCCC3)C(=O)O)C1 (racemic) [Example 3, 3-(5-(5,6,7,8-tetrahydro-1,8-naphthyridin-2-yl)pentanamido)-2-(1-(2-methylbenzenesulfonyl)azetidine-3-carboxamido)propanoic acid]	< 250	–
